According to publication PMC7409197, “Adenosine Receptors as Neuroinflammation Modulators: Role of A1 Agonists and A2A Antagonists” (Cells, 2020):

Key:
[1] = test system: mixed glial cells; test: MTS cell viability in cytokine cocktail (CK) inflammatory model, mixed glial cells; format: cell-based, rat
Procedure: Newborn male Wistar rats were sacrificed and mixed glial cell cultures were obtained from the cerebral cortices. Cerebral cortices were dissected, and meninges were cleared away. Tissues were treated with trypsin solution (trypsin 0.05% (w/v) trypsin-EDTA 5 mM) for 25 min at 37 °C. The tissue was fully disaggregated by pipetting and the dissociated cells were seeded in a 6-well plate with Dulbecco’s modified Eagle’s/High glucose medium enriched with 100 U/mL penicillin, 100 µg/mL streptomycin and 10% FBS. Fresh medium was changed the next day and then every 3 days decreasing the quantity of FBS. All experiments were carried out after 7–9 days of plating.
Mixed glial cell cultures were divided into 2 groups, one to study A1AR partial agonists and another for A2AAR antagonists. Cells from the first group were pre-treated with 2 µL at three different concentrations of C1 for 15, 30 or 60 min and then with further addition of a pro-inflammatory cocktail of cytokines (TNF-α, 20 ng/mL; IL-1β, 20 ng/mL; IFN-γ 20 ng/mL) for 48 h. […] To study C2 cells were pre-treated with the same CK cocktail for 48 h and then with 2 µL of C2 at three different concentrations for 15, 30, or 60 min (Scheme 1). ZM241385, a well known A2AAR antagonist, was used as reference compound. Furthermore, ligands and CK were tested alone for 15, 30 or 60 min and 48 h respectively.
(§1) 1.7 × 10^4 mixed glial cells were cultured in 98 μL of the specific medium in a 96 well plate overnight. The next day 2 μL of ligand or CK cocktail were added to the well. After all treatments, 20 µL of CellTiter 96® AQueous One Solution Reagent was added in a final volume of 100 µL. Absorbance was read at 490 nm using the plate reader GENiosPro. Cell viability was calculated as percentage using the following formula: Cell viability =OD mean of treated cells/OD mean of control cells × 100

[2] = target: T1, A2AAR (Homo sapiens, UniProt P29274); test: A2AAR functional antagonism (IC50), method not described; format: biochemical; conditions: unpublished results of the authors; read-out: IC50A2AAR
[3] = target: T2, A1AR (Homo sapiens, UniProt P30542); test: A1AR affinity (Ki), method not described; format: binding; conditions: unpublished results of the authors; read-out: KiA1AR
T2 sequence (P30542 1-326): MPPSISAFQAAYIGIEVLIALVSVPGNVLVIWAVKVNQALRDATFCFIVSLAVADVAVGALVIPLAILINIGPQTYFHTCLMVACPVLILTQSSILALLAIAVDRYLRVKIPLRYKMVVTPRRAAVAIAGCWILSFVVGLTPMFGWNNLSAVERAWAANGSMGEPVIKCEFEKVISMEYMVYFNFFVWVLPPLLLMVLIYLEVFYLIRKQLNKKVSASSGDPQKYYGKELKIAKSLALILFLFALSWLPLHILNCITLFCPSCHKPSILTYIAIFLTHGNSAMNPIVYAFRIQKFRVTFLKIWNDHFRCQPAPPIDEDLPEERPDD

[4] = test system: mixed glial cells; test: Trypan blue exclusion test in mixed glial cells; format: cell-based, rat; conditions: 30 min
Procedure: 6 × 10^5 mixed glial cells were seeded in a six well plate and after 24 h incubated with C2 10 nM alone or in presence of CK cocktail. After 30 min at 37 °C cells were detached with Trypsin-EDTA solution and 10 µL of cells were added to 40 μL of 0.4% trypan blue solution. Cells were counted with a Neubauer chamber and the number of live cells was calculated.

[5] = target: T3, A3AR (Homo sapiens, UniProt P0DMS8); test: A3AR affinity (Ki), method not described; format: binding; conditions: unpublished results of the authors; read-out: KiA3AR
T3 sequence (P0DMS8 1-318): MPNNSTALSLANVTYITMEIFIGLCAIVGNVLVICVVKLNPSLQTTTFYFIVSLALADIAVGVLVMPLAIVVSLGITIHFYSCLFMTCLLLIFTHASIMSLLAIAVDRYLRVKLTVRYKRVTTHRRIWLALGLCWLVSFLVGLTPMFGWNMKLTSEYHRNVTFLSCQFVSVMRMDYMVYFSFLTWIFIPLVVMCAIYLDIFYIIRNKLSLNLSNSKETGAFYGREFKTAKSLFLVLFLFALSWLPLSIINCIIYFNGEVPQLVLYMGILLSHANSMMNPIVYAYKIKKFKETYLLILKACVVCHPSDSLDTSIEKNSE

[6] = target: T1, A2AAR; test: A2AAR affinity (Ki), method not described; format: binding; conditions: unpublished results of the authors; read-out: KiA2AAR
[7] = test system: neuronal cells; test: Cell viability in primary neuronal cells with or without CK and AR antagonists; format: cell-based, rat; conditions: for protection of neurons against neuroinflammatory insult (cell viability): 30 min, with CK
Procedure: Neurons were obtained from hippocampus or cortex of embryos. Briefly, pregnant rat was scarified and the uterus removed. Embryos were taken out from the uterus and brains were obtained. After removing the meninges, hippocampus and cortex were dissected and homogenated with tweezers. The result was incubated with trypsin for 15 min at 37 °C and then centrifuged 2 min at 1000 rpm. The pellet was resuspended with 15 mL of HBSS/0.37% Glucose/30% FBS and centrifuged as before for three times. Finally, the pellet was resuspended with 15 mL of neurobasal media supplemented with 25 µM of glutamine. The result was filtered and plated. Cells were plated in 24 well plates at 10^5 cells/well [26].
as §1

[8] = target: human A1AR; set-up: method as in PMID 30614535; conditions: CHO cells stably transfected with human ARs; read-out: KiA1AR; cited from earlier work
[9] = target: human A3AR; set-up: method as in PMID 30614535; conditions: CHO cells stably transfected with human ARs; read-out: KiA3AR; cited from earlier work
[10] = test system: SH-SY5Y cells; set-up: method as in PMID 30614535; conditions: different concentrations; cited from earlier work
[11] = target: human A2AAR; set-up: method as in PMID 30614535; conditions: CHO cells stably transfected with human ARs; read-out: KiA2AAR; cited from earlier work
[12] = test system: hA1AR; set-up: method as in PMID 30614535; conditions: inhibition of adenyl cyclase activity induced by forskolin, cited from earlier work
[13] = test system: mouse ileum contractility; set-up: method as in PMID 30614535; conditions: ex vivo mouse ileum; cited from earlier work

T1 sequence (P29274 whole entry): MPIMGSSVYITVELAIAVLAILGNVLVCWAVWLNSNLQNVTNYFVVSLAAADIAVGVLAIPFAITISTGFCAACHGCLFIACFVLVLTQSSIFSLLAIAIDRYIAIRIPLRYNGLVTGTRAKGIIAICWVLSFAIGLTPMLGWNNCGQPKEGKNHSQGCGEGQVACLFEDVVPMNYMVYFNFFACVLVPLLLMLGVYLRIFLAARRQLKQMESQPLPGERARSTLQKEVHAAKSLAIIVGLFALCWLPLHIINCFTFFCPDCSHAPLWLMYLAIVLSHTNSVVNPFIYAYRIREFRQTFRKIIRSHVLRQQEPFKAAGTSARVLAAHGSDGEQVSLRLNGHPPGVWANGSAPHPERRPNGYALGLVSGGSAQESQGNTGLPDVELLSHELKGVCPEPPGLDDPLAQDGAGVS

Structure (SMILES) | cell viability vs. control ([1]; CK cocktail 20 ng/mL 48 h, then ligand 5 nM for 15 min) [%] | cell viability vs. control ([1]; CK cocktail 20 ng/mL 48 h, then ligand 10 nM for 30 min) [%] | IC50 [2] [µM] | Ki [3] [µM] | live cells vs. control (trypan blue) ([4]; 10 nM alone) | number of cells vs. control (trypan blue) ([4]; 10 nM, after aggression with CK cocktail) | Ki [5] [µM] | Ki [6] [µM] | protection of neurons against neuroinflammatory insult (cell viability) ([7]; C1 5.5 µM, C2 10 nM) | cell viability, combination with A2AAR antagonist SCH58261 ([7]; neurons, C2 10 nM, SCH58261 50 nM) | Ki [8] [µM] | Ki [9] [µM] | cell viability vs. control ([1]; pre-treatment 5.5 µM for 30 min, then CK cocktail 48 h) [%] | prevention of CK aggression (cell viability, words) ([1]; pre-treatment before CK cocktail 48 h, C1 2-30 µM, CCPA 10 nM 30 min) | protection from oxygen-glucose deprivation (OGD) [10] | Ki [11] [µM] | α (intrinsic activity, partial agonist) [12] | EC50 ([12]; read-out: EC50A1AR) [µM] | maximal reduction of contractility relative to full agonist CCPA [13] [%] | cell viability, effect against A1AR antagonist DPCPX ([7]; neurons, C1 5.5 µM, DPCPX 100 nM, in presence of CK)
CCn1c(Cl)nc2c(N)nc(OCCc3ccccc3)nc21 [Compound C2, 8-chloro-9-ethyl-2-phenethoxyadenine] | 138 ± 1.7 | 233 ± 3.4 | 0.251 | 0.017 | 123 ± 4.5 | 129 ± 3.5 | 0.227 | 0.00075 | beneficial effects in protecting neurons | did not exhibited a synergic effect | – | – | – | – | – | – | – | – | – | –
OC[C@H]1O[C@@H](n2cnc3c(NC4CCCC4)nc(Cl)nc32)C[C@@H]1O [Compound C1, 2-chloro-N^6-cyclopentyl-2′-deoxyadenosine] | – | – | – | – | – | – | – | – | beneficial effects in protecting neurons | – | 0.55 | 5.56 | 113 ± 3.1 | able to prevent the CK aggression | protect SH-SY5Y cells from oxygen-glucose deprivation (OGD) | 24.8 | 0.70 | 0.832 | 75 | partially counteract the effect of DPCPX
